Data as given in ChEMBL document CHEMBL6153041, “Discovery of High-Affinity SMARCA2/4 Bromodomain Ligands and Development of Potent and Exceptionally Selective SMARCA2 PROTAC Degraders” (J Med Chem, 2025).

How the values were obtained:
[1] = molecular target: T1, von Hippel-Lindau disease tumor suppressor/SWI/SNF-related matrix-associated actin-dependent regulator of chromatin subfamily A member 4 (Homo sapiens, UniProt P51532+P40337); assay: PROTAC activity at VHL1/SMARCA4 in human genetically modified Hela cells assessed as maximal degradation measured after 24 hrs incubation by Nano-Glo HiBiT Lytic Detection Assay relative to control; type: cell-based
Target sequence in this assay (P40337 whole entry, looked up): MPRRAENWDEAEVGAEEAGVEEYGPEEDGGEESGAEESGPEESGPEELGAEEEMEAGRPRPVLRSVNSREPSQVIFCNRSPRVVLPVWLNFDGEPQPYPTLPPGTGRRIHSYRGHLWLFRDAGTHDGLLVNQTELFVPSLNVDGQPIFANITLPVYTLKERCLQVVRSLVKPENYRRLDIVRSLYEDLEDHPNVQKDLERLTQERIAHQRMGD
Target sequence in this assay (P51532 whole entry, looked up): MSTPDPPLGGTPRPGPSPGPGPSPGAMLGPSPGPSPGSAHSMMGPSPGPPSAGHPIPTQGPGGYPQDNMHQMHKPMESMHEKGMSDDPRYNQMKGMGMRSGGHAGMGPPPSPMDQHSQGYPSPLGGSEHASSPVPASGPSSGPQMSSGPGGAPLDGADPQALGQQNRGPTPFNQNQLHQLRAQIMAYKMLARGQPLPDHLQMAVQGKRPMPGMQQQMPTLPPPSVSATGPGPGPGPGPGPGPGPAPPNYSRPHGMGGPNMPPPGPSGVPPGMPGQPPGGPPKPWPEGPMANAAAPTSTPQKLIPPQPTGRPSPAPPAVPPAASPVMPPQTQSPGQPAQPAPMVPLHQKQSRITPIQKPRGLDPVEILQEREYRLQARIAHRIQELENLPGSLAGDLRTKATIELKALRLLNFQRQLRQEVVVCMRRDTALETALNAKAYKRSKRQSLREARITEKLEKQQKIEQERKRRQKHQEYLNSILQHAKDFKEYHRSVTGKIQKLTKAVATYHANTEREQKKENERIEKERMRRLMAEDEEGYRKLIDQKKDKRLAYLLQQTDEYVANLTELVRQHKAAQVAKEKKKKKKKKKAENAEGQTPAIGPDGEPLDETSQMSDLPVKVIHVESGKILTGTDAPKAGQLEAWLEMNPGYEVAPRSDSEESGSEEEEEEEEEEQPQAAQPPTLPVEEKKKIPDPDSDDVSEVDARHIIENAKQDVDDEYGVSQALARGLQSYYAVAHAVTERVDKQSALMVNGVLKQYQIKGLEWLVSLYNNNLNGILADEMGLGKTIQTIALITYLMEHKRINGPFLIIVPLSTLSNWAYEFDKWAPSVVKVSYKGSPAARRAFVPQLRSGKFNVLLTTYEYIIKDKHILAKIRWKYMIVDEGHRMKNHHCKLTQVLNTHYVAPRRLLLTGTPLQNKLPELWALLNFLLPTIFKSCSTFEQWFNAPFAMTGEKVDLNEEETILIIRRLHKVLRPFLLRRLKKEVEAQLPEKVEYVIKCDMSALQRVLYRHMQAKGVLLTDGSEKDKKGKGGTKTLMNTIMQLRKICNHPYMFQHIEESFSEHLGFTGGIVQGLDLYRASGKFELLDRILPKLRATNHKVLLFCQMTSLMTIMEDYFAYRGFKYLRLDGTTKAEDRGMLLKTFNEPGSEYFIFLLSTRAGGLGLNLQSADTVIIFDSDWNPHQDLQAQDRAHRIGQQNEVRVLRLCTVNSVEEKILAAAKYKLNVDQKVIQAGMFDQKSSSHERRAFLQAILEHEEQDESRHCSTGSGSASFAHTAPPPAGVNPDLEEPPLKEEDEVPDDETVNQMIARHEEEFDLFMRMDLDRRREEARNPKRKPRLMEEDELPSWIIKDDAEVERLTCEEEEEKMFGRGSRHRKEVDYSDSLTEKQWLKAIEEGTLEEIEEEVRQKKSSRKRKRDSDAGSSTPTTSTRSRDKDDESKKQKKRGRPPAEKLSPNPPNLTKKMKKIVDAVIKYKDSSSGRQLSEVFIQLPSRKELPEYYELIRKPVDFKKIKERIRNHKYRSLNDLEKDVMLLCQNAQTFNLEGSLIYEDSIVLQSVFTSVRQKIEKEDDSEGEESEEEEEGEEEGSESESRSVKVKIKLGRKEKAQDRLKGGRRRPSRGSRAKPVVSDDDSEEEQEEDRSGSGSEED

[2] = tested on: HeLa; assay: Selectivity ratio, ratio of DC50 for VHL1/SMARCA4 in human genetically modified Hela cells to VHL1/SMARCA2 in human genetically modified Hela cells; type: cell-based
[3] = molecular target: T1, von Hippel-Lindau disease tumor suppressor/SWI/SNF-related matrix-associated actin-dependent regulator of chromatin subfamily A member 4; assay: PROTAC activity at VHL1/SMARCA4 in human genetically modified Hela cells assessed as degradation measured after 24 hrs incubation by Nano-Glo HiBiT Lytic Detection Assay; type: cell-based
Target sequence in this assay (P51532 whole entry): as the sequence (P51532 whole entry, looked up) above
Target sequence in this assay (P40337 whole entry): as the sequence (P40337 whole entry, looked up) above

[4] = molecular target: T2, von Hippel-Lindau disease tumor suppressor/SWI/SNF-related matrix-associated actin-dependent regulator of chromatin subfamily A member 2 (Homo sapiens, UniProt P51531+P40337); assay: PROTAC activity at VHL1/SMARCA2 in human genetically modified Hela cells assessed as maximal degradation measured after 24 hrs incubation by Nano-Glo HiBiT Lytic Detection Assay relative to control; type: cell-based
Target sequence in this assay (P40337 whole entry, looked up): as above
Target sequence in this assay (P51531 whole entry, looked up): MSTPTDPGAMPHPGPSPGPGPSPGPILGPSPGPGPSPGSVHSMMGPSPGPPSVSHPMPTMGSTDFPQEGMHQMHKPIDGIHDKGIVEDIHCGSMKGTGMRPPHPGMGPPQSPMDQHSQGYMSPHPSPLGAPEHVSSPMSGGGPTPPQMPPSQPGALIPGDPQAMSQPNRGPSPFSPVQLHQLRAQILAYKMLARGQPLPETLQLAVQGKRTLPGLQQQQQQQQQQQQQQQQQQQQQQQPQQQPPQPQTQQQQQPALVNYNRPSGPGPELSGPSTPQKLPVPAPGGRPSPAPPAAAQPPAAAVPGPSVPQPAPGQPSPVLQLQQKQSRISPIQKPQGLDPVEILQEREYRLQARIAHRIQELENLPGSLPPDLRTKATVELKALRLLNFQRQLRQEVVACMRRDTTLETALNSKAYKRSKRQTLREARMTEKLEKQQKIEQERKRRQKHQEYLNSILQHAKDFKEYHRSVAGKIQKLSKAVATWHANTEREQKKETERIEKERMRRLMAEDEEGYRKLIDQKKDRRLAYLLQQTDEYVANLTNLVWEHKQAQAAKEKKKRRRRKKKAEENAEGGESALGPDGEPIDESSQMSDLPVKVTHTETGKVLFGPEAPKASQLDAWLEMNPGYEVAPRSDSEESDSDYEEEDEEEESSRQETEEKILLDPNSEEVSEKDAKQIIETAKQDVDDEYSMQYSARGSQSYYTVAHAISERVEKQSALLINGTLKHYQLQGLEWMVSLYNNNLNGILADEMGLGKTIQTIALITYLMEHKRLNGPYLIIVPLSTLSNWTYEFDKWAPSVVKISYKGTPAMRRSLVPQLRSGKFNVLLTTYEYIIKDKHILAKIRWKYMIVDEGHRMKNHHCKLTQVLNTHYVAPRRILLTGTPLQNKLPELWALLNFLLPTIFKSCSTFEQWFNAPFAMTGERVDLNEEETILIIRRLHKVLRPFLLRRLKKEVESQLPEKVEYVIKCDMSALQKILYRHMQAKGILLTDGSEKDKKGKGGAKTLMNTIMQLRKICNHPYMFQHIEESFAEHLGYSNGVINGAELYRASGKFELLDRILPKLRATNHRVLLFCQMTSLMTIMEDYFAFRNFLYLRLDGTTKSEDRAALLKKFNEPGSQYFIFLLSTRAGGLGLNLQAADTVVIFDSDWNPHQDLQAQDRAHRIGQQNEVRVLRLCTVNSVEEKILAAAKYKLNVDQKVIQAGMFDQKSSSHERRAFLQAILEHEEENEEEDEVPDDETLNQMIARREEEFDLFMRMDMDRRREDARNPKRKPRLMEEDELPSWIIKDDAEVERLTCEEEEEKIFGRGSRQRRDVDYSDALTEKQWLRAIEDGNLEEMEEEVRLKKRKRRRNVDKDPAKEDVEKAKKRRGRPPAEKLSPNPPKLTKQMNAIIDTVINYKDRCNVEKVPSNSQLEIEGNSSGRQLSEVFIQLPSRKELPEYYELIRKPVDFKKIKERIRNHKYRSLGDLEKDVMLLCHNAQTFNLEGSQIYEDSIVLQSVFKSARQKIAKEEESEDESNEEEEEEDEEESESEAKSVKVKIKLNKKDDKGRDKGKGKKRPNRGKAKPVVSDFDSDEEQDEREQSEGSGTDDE

[5] = molecular target: T2, von Hippel-Lindau disease tumor suppressor/SWI/SNF-related matrix-associated actin-dependent regulator of chromatin subfamily A member 2; assay: PROTAC activity at VHL1/SMARCA2 in human genetically modified Hela cells assessed as degradation measured after 24 hrs incubation by Nano-Glo HiBiT Lytic Detection Assay; type: cell-based
Target sequence in this assay (P51531 whole entry): as the sequence (P51531 whole entry, looked up) above
Target sequence in this assay (P40337 whole entry): as the sequence (P40337 whole entry, looked up) above

[6] = molecular target: SWI/SNF-related matrix-associated actin-dependent regulator of chromatin subfamily A member 2 (Homo sapiens, UniProt P51531); assay: Inhibition of recombinant human GST-tagged SMARCA2 bromodomain measured after 120 mins incubation by TR-FRET assay
[7] = molecular target: SWI/SNF-related matrix-associated actin-dependent regulator of chromatin subfamily A member 4 (Homo sapiens, UniProt P51532); assay: Inhibition of recombinant human GST-tagged SMARCA4 bromodomain measured after 120 mins incubation by TR-FRET assay
Sequence of SWI/SNF-related matrix-associated actin-dependent regulator of chromatin subfamily A member 4 (P51532 whole entry): as the sequence (P51532 whole entry, looked up) above

Sequence of SWI/SNF-related matrix-associated actin-dependent regulator of chromatin subfamily A member 2 (P51531 whole entry): as the sequence (P51531 whole entry, looked up) above

Cc1ncsc1-c1ccc([C@H](C)NC(=O)[C@@H]2C[C@@H](O)CN2C(=O)[C@@H](NC(=O)[C@H]2CC[C@H](CN3CCC(c4ccc5c(c4)-n4c(nc(=O)c6c(Br)cccc64)C54CCCCC4)CC3)CC2)C(C)(C)C)cc1
Emax [1]: 37%
Ratio [2]: > 700
DC50 [3]: > 10000 nM
Emax [4]: 88%
DC50 [5]: 14 nM

O=c1nc2n(c3cccc(Cl)c13)-c1ccc(C3CCNCC3)cc1C21CCCC1
IC50 [6]: 56 nM
IC50 [7]: 55 nM

O=c1nc2n(c3cccc(Br)c13)-c1cc(C3CCNCC3)ccc1C21CCCCC1
IC50 [6]: 64 nM
IC50 [7]: 90 nM

Cc1ncsc1-c1ccc([C@H](C)NC(=O)[C@@H]2C[C@@H](O)CN2C(=O)[C@@H](NC(=O)CN2CCC(c3ccc4c(c3)C3(CCCCC3)c3nc(=O)c5c(Cl)cccc5n3-4)CC2)C(C)(C)C)cc1
Emax [1]: 97%
Ratio [2]: 2
DC50 [3]: 8.7 nM
Emax [4]: 97%
DC50 [5]: 5.3 nM

O=c1nc2n(c3cccc(Cl)c13)-c1ccc(C3CCNCC3)cc1C21CCCCC1
IC50 [6]: 53 nM

CCc1cccc2c1c(=O)nc1n2-c2cc(C3CCNCC3)ccc2C12CCCCC2
IC50 [6]: 3400 nM
IC50 [7]: 2840 nM

Cc1ncsc1-c1ccc([C@H](C)NC(=O)[C@@H]2C[C@@H](O)CN2C(=O)[C@@H](NC(=O)[C@H]2CC[C@H](CN3CCC(c4ccc5c(c4)C4(CCCCC4)c4nc(=O)c6c(Br)cccc6n4-5)CC3)CC2)C(C)(C)C)cc1
Emax [1]: 58%
Ratio [2]: 54
DC50 [3]: 162 nM
Emax [4]: 93%
DC50 [5]: 3 nM

O=c1nc2n(c3cccc(Cl)c13)-c1cc(C3CCNCC3)ccc1C21CCOCC1
IC50 [6]: 630 nM
IC50 [7]: 1150 nM

O=c1nc2n(c3cccc(O)c13)-c1cc(C3CCNCC3)ccc1C21CCCCC1
IC50 [6]: 4520 nM
IC50 [7]: 3210 nM

O=c1nc2n(c3nccc(O)c13)-c1cc(C3CCNCC3)ccc1C21CCCCC1
IC50 [6]: > 10000 nM
IC50 [7]: > 10000 nM

Cc1ncsc1-c1ccc([C@H](C)NC(=O)[C@@H]2C[C@@H](O)CN2C(=O)[C@@H](NC(=O)[C@H]2CC[C@H](CN3CCC(c4ccc5c(c4)C4(CCCCC4)c4nc(=O)c6c(Cl)cccc6n4-5)CC3)CC2)C(C)(C)C)cc1
Emax [1]: 48%
Ratio [2]: > 1500
DC50 [3]: > 10000 nM
Emax [4]: 92%

O=c1nc2n(C3CCCC3)c3cc(C4CCNCC4)ccc3n2c2cccc(Br)c12
IC50 [6]: 45 nM
IC50 [7]: 83 nM

Cc1ncsc1-c1ccc([C@H](CCCCCN2CCC(c3ccc4c(c3)-n3c(nc(=O)c5c(Cl)cccc53)C43CCCCC3)CC2)NC(=O)[C@@H]2C[C@@H](O)CN2C(=O)[C@@H](NC(=O)C2(F)CC2)C(C)(C)C)cc1
Emax [1]: 87%
Ratio [2]: 3
DC50 [3]: 22 nM
Emax [4]: 92%
DC50 [5]: 7.5 nM

Cc1ncsc1-c1ccc([C@H](C)NC(=O)[C@@H]2C[C@@H](O)CN2C(=O)[C@@H](NC(=O)[C@H]2CC[C@H](CN3CC4(CCC(n5cc(-c6cc(-c7ccccc7O)nnc6N)cn5)CC4)C3)CC2)C(C)(C)C)cc1
Emax [1]: 52%
Ratio [2]: 39
DC50 [3]: 895 nM
Emax [4]: 93%
DC50 [5]: 23 nM

O=c1nc2n(c3cccc(Br)c13)-c1ccc(C3CCNCC3)cc1C21CCCC1
IC50 [6]: 62 nM
IC50 [7]: 51 nM

Cc1ncsc1-c1ccc([C@H](CCCCCN2CCC(c3ccc4c(c3)C3(CCCCC3)c3nc(=O)c5c(Br)cccc5n3-4)CC2)NC(=O)[C@@H]2C[C@@H](O)CN2C(=O)[C@@H](NC(=O)C2(F)CC2)C(C)(C)C)cc1
Emax [1]: 97%
Ratio [2]: 7
DC50 [3]: 1.7 nM
Emax [4]: 97%
DC50 [5]: 0.24 nM

Cc1ncsc1-c1ccc([C@H](C)NC(=O)[C@@H]2C[C@@H](O)CN2C(=O)[C@@H](NC(=O)CCCCN2CCC(c3ccc4c(c3)C3(CCCCC3)c3nc(=O)c5c(Cl)cccc5n3-4)CC2)C(C)(C)C)cc1
Emax [1]: > 39%
Ratio [2]: > 950
DC50 [3]: > 10000 nM
Emax [4]: 88%
DC50 [5]: 105 nM

O=c1nc2n(c3cccc(Br)c13)-c1ccc(C3CCNCC3)cc1C21CCCCC1
IC50 [6]: 30 nM
IC50 [7]: 38 nM

Cc1ncsc1-c1ccc([C@H](C)NC(=O)[C@@H]2C[C@@H](O)CN2C(=O)[C@@H](NC(=O)CCCN2CCC(c3ccc4c(c3)C3(CCCCC3)c3nc(=O)c5c(Cl)cccc5n3-4)CC2)C(C)(C)C)cc1
Emax [1]: 70%
Ratio [2]: 115
DC50 [3]: 7000 nM
Emax [4]: 87%
DC50 [5]: 61 nM

O=c1nc2n(c3cccc(Cl)c13)-c1ccc(C3CCNCC3)cc1C21CCCCCC1
IC50 [6]: 153 nM
IC50 [7]: 129 nM

Cc1ncsc1-c1ccc([C@H](C)NC(=O)[C@@H]2C[C@@H](O)CN2C(=O)[C@@H](c2cc(N3CCC(CN4CCC(O[C@H]5C[C@H](Oc6cc(CN7C8CCC7CN(c7cc(-c9ccccc9O)nnc7N)C8)ccn6)C5)CC4)CC3)no2)C(C)C)cc1
Emax [1]: 96%
Ratio [2]: 13
DC50 [3]: 1.3 nM
Emax [4]: 97%
DC50 [5]: 0.1 nM

O=c1nc2n(c3cccc(Cl)c13)-c1ccc(C3CCNCC3)cc1C21CCOCC1
IC50 [6]: 538 nM
IC50 [7]: 612 nM

Cc1ncsc1-c1ccc([C@H](C)NC(=O)[C@@H]2C[C@@H](O)CN2C(=O)[C@@H](NC(=O)CCCCCN2CCC(c3ccc4c(c3)C3(CCCCC3)c3nc(=O)c5c(Cl)cccc5n3-4)CC2)C(C)(C)C)cc1
Emax [1]: 55%
Ratio [2]: 24
DC50 [3]: 697 nM
Emax [4]: 94%
DC50 [5]: 29 nM

O=c1nc2n(c3cccc(Cl)c13)-c1cc(C3CCNCC3)ccc1C21CCCC1
IC50 [6]: 106 nM
IC50 [7]: 133 nM

Cc1ncsc1-c1ccc([C@H](CCCCCN2CCC(c3ccc4c(c3)-n3c(nc(=O)c5c(Br)cccc53)C43CCCCC3)CC2)NC(=O)[C@@H]2C[C@@H](O)CN2C(=O)[C@@H](NC(=O)C2(F)CC2)C(C)(C)C)cc1
Emax [1]: 93%
Ratio [2]: 28
DC50 [3]: 84 nM
Emax [4]: 95%
DC50 [5]: 3 nM

O=c1nc2n(c3ccccc13)-c1cc(C3CCNCC3)ccc1C21CCCCC1
IC50 [6]: 3070 nM
IC50 [7]: 1440 nM

Cc1ncsc1-c1ccc([C@H](C)NC(=O)[C@@H]2C[C@@H](O)CN2C(=O)[C@@H](NC(=O)CCN2CCC(c3ccc4c(c3)C3(CCCCC3)c3nc(=O)c5c(Cl)cccc5n3-4)CC2)C(C)(C)C)cc1
Emax [1]: 77%
Ratio [2]: 6
DC50 [3]: 543 nM
Emax [4]: 93%
DC50 [5]: 99 nM

O=c1nc2n(c3ccnc(O)c13)-c1cc(C3CCNCC3)ccc1C21CCCCC1
IC50 [6]: > 10000 nM
IC50 [7]: > 10000 nM

O=c1nc2n(c3cccc(Cl)c13)-c1ccc(C3CCNCC3)cc1C21CCNCC1
IC50 [6]: 3450 nM
IC50 [7]: 3340 nM
